Measured values: ChEMBL document CHEMBL4482322, “Uses of tryptanthrin and derivative thereof in preparing hldo2 inhibitor” (2017)
pIC50, pKi: −log10 of the molar value.

Columns and labels:
[1] = target: T1, Indoleamine 2,3-dioxygenase 2 (Homo sapiens) (UniProt Q6ZQW0); experiment: Inhibition of human IDO2 at 10 uM using L-tryptophan as substrate incubated for 30 min assessed as reduction in conversion of N-formyl kynurenine to kynurenine relative to control
T1 sequence (whole entry): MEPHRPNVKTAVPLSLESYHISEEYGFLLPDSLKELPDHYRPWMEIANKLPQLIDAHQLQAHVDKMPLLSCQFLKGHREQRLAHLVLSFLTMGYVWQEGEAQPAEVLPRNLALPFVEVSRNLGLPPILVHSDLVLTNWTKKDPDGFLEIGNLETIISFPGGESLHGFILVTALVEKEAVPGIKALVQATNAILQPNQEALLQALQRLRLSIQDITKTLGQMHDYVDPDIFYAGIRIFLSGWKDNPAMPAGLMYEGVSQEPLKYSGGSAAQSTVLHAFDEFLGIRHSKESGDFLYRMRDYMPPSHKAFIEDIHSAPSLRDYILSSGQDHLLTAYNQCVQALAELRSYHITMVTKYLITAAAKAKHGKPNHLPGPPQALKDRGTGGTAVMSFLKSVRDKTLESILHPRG

[2] = target: T2, Indoleamine 2,3-dioxygenase 1 (Homo sapiens, UniProt P14902); experiment: Inhibition of IDO1 in human U87MG cells in presence of L-tryptophan incubated for 24 h; assay type: cell-based
T2 sequence (P14902 whole entry): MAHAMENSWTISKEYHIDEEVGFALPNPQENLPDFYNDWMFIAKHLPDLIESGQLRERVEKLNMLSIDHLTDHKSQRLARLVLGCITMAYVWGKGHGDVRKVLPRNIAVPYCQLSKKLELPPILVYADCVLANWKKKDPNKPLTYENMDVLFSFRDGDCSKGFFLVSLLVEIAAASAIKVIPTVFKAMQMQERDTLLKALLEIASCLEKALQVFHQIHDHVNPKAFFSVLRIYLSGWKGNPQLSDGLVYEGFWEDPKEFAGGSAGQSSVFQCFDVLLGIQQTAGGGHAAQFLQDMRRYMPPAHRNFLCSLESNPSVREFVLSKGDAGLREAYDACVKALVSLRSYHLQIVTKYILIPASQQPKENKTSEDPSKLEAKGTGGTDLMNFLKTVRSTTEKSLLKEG

[3] = target: T2, Indoleamine 2,3-dioxygenase 1; experiment: Inhibition of IDO1 (unknown origin) using L-tryptophan as substrate incubated for 30 min assessed as reduction in conversion of N-formyl kynurenine to kynurenine by dixon plot analysis
[4] = target: T3, Indoleamine 2,3-dioxygenase 2 (Homo sapiens, UniProt Q6ZQW0); experiment: Inhibition of human IDO2 using L-tryptophan as substrate assessed as reduction in conversion of N-formyl kynurenine to kynurenine
T3 sequence (Q6ZQW0 whole entry): T1 sequence (whole entry)

inhibition [1] [%]	Structure (SMILES)	also measured
18 to 47	O=C1c2cc(F)ccc2-n2c1nc1ccc(F)cc1c2=O	–
18 to 47	O=C1c2c(Cl)cccc2-n2c1nc1ccccc1c2=O	–
18 to 47	O=C1c2ccc(Cl)cc2-n2c1nc1ccccc1c2=O	–
18 to 47	O=C1c2ccccc2-n2c1nc1ccc(F)cc1c2=O	pIC50 [2]: < 2.41; pKi [3]: < 2.41
8	Cn1cc(C[C@H](N)C(=O)O)c2ccccc21	–
8	Cn1cc(C[C@@H](N)C(=O)O)c2ccccc21	–
18 to 47	O=C1c2ccccc2-n2c1nc1ccccc1c2=O	–
18 to 47	O=C1c2cc(Br)ccc2-n2c1nc1ccccc1c2=O	–
18 to 47	Cc1ccc2c(c1)C(=O)c1nc3ccccc3c(=O)n1-2	pIC50 [2]: < 2.41
63	O=C1c2cc([N+](=O)[O-])ccc2-n2c1nc1ccccc1c2=O	pIC50 [4]: 5.73
18 to 47	O=C1c2cc(F)ccc2-n2c1nc1ccccc1c2=O	–
